Results taken from patent US5210215A, “Tryptophane and 3-indolepyruvic acid, methods of production therefor” (Polifarma S.p.A., priority 1989, dated 1993).
Where two headings read alike, the source gives them in different places.

Columns and labels:
[1] = system: formation of free radicals from biological membrane undergoing oxidative stress (MDA formation); experiment: Formation of malonodialdehyde (MDA) test: antagonism of free radical formation from biological membrane undergoing oxidative stress; type: biochemical; conditions: in vitro; IC50 = dose of compound necessary to reduce by 50% the harmful effect
Protocol: For the first experiment was chosen the test on formation of malonodialdehyde (MDA). Briefly, the capacity was tested of the above compounds to antagonize the formation of free radicals from biological membrane undergoing oxidative stress.
(§1) of compound necessary to reduce by 50% the harmful effect to be added to the in vitro tests or to be administered to mice.

[2] = system: convulsions and death induced by NMDA (N-methyl-D-aspartic acid); experiment: Antagonism of convulsions and death induced by NMDA (N-methyl-D-aspartic acid); type: in vivo; conditions: Mus musculus, ip, mice, IC50 = dose necessary to reduce by 50% the harmful effect
Protocol: For the second experiment, on the contrary, the capacity of the compounds to antagonize the convulsions and death induced by NMDA (N-methyl-D-aspartic acid), an excitatory amino acid, was evaluated.
as §1

[3] = convulsions, read-out: CONVULSIONS from MDA IC50
[4] = death, read-out: DEATH from MDA IC50

Row | Compound | IC50 [1] | ED50 [2, 3] | ED50 [2, 4]
1 | NC(Cc1c[nH]c2cc(Cl)ccc12)C(=O)O (racemic) [6-Cl-TRP, 6-chloro-DL-tryptophan] | 1000 µM | 1000 mg/kg | 200 mg/kg
2 | O=C(O)C(=O)Cc1c[nH]c2cccc(Cl)c12 [4-Cl-IPA, 4-chloro-indole-3-yl-pyruvic] | 1000 µM | 1000 mg/kg | 200 mg/kg
3 | O=C(O)C(=O)Cc1c[nH]c2ccc(Cl)cc12 [5-Cl-IPA, 5-chloro-indole-3-yl-pyruvic] | 500 µM | 600 mg/kg | 200 mg/kg
4 | O=C(O)C(=O)Cc1c[nH]c2cc(Br)ccc12 [6-Br-IPA] | 50 µM | 100 mg/kg | 20 mg/kg
5 | O=C(O)C(=O)Cc1c[nH]c2cc(Cl)ccc12 [6-Cl-IPA, 6-chloro-indole-3-yl-pyruvic acid] | 100 µM | 20 mg/kg | 10 mg/kg
6 | Cc1ccc2c(CC(=O)C(=O)O)c[nH]c2c1 [6-Me-IPA, 6-methyl-indole-3-yl-pyruvic] | 60 µM | 200 mg/kg | 100 mg/kg
7 | O=C(O)C(=O)Cc1c[nH]c2cc(O)ccc12 [6-OH-IPA] | 500 µM | 800 mg/kg | 200 mg/kg
8 | COc1ccc2c(CC(=O)C(=O)O)c[nH]c2c1 [6-OMe-IPA] | 100 µM | 200 mg/kg | 100 mg/kg
9 | O=C(O)C(=O)Cc1c[nH]c2c(Cl)cccc12 [7-Cl-IPA] | 400 µM | 1000 mg/kg | 200 mg/kg
10 | O=C(O)C(=O)Cc1c[nH]c2ccccc12 [IPA, 3-indolepyruvic acid] | 10 µM | 200 mg/kg | 50 mg/kg
